Measurements from ChEMBL document CHEMBL4396952, “Xanthone, benzophenone and bianthrone derivatives from the hypersaline lake-derived fungus Aspergillus wentii” (Bioorg Med Chem, 2019).
Activity calls are given as the source filed them. The calls are words filed in the database; no cut-off is given here.

Legend:
L5178Y [1] = test: Cytotoxicity against mouse L5178Y cells at 10 ug/ml; type: functional, cell-based
L5178Y [2] = test: Cytotoxicity against mouse L5178Y cells at 100 uM; type: functional, cell-based
L5178Y [3] = test: Cytotoxicity against mouse L5178Y cells at 10 uM; type: functional, cell-based
A2780S [4] = test: Cytotoxicity against human A2780S cells at 10 ug/ml; type: functional, cell-based
A2780S [5] = test: Cytotoxicity against human A2780S cells at 100 uM; type: functional, cell-based
A2780S [6] = test: Cytotoxicity against human A2780S cells at 10 uM; type: functional, cell-based
[7] = test system: Mycobacterium tuberculosis; test: Antitubercular activity against Mycobacterium tuberculosis H37Rv; type: functional, organism-based
Staphylococcus aureus = test: Antibacterial activity against Staphylococcus aureus ATCC 29213; type: functional, organism-based
Escherichia coli = test: Antibacterial activity against Escherichia coli; type: functional, organism-based
Pseudomonas aeruginosa = test: Antibacterial activity against Pseudomonas aeruginosa; type: functional, organism-based
Enterococcus faecium = test: Antibacterial activity against Enterococcus faecium; type: functional, organism-based
Klebsiella pneumoniae = test: Antibacterial activity against Klebsiella pneumoniae; type: functional, organism-based
Klebsiella aerogenes = test: Antibacterial activity against Enterobacter aerogenes; type: functional, organism-based
Acinetobacter baumannii = test: Antibacterial activity against Acinetobacter baumannii; type: functional, organism-based
[8] = Stability of the compound by HPLC analysis; type: physicochemical

Row | SMILES | Activity (L5178Y [1]) | Activity (L5178Y [2]) | Activity (L5178Y [3]) | Activity (A2780S [4]) | Activity (A2780S [5]) | Activity (A2780S [6]) | Activity [7] | Activity (Staphylococcus aureus) | Activity (Escherichia coli) | Activity (Pseudomonas aeruginosa) | Activity (Enterococcus faecium) | Activity (Klebsiella pneumoniae) | Activity (Klebsiella aerogenes) | Activity (Acinetobacter baumannii) | Stability [8]
1 | COc1cc(C(=O)O)c2c(=O)c3c(O)cc(C)cc3oc2c1 | inactive | inactive | inactive | inactive | inactive | inactive | inactive | inactive | inactive | inactive | inactive | inactive | inactive | inactive | –
2 | COC(=O)c1cc(C)c(C(=O)OC[C@@H](O)CO)c(OC)c1C(=O)c1c(C)cc(O)cc1O | inactive | inactive | inactive | – | – | – | inactive | – | – | – | – | – | – | – | –
3 | Cc1cc(O)c2c(=O)c3c(C(=O)O)cc(O)cc3oc2c1 | inactive | inactive | inactive | inactive | inactive | inactive | inactive | inactive | inactive | inactive | inactive | inactive | inactive | inactive | –
4 | COC(=O)c1cc(C)c(C(=O)OC[C@@H](O)CO)c2oc3cc(O)cc(O)c3c(=O)c12 | inactive | inactive | inactive | – | – | – | inactive | – | – | – | – | – | – | – | –
5 | COc1cc(OC)c2c(c1)C(C1c3cc(O)cc(O)c3C(=O)c3c1cc(C)c(C(=O)OC[C@@H](O)CO)c3O)c1cc(C)cc(O)c1C2=O (stereo partly specified) | – | – | – | – | – | – | – | – | – | – | – | – | – | – | Unstable
6 | COc1cc(O)c2c(c1)C(C1c3cc(C)cc(O)c3C(=O)c3c(O)cc(OC)cc31)c1cc(C)cc(O)c1C2=O (stereo unspecified) | – | – | – | – | – | – | – | – | – | – | – | – | – | – | Unstable
7 | COC(=O)c1cc(O)cc(OC)c1C(=O)c1c(O)cc(C)cc1O | inactive | inactive | inactive | inactive | inactive | inactive | inactive | inactive | inactive | inactive | inactive | inactive | inactive | inactive | –
8 | COC(=O)c1cc(O)cc(O)c1C(=O)c1c(O)cc(C)cc1O | inactive | inactive | inactive | inactive | inactive | inactive | inactive | inactive | inactive | inactive | inactive | inactive | inactive | inactive | –
9 | Cc1cc(=O)c2c(C)cc3cc(O)cc(O)c3c2o1 | inactive | inactive | inactive | inactive | inactive | inactive | inactive | inactive | inactive | inactive | inactive | inactive | inactive | inactive | –
10 | Cc1cc2c(c(O)c1C(=O)OC[C@@H](O)CO)C(=O)c1c(O)cc(O)cc1C2=O | inactive | inactive | inactive | inactive | inactive | inactive | inactive | inactive | inactive | inactive | inactive | inactive | inactive | inactive | –
11 | COc1cc(O)c2c(c1)[C@@H]([C@H]1c3cc(O)cc(O)c3C(=O)c3c1cc(C)c(C(=O)OC[C@@H](O)CO)c3O)c1cc(C)cc(O)c1C2=O | – | – | – | – | – | – | – | – | – | – | – | – | – | – | Unstable
12 | COc1cc(OC)c2c(c1)C(C1c3cc(C)cc(O)c3C(=O)c3c(OC)cc(OC)cc31)c1cc(C)cc(O)c1C2=O (stereo unspecified) | – | – | – | – | – | – | – | – | – | – | – | – | – | – | Unstable
13 | COc1cc(OC)c2c(c1)[C@@H]([C@@H]1c3cc(C)cc(O)c3C(=O)c3c(OC)cc(O)cc31)c1cc(C)cc(O)c1C2=O | – | – | – | – | – | – | – | – | – | – | – | – | – | – | Unstable
14 | COc1cc(OC)c2c(c1)C(=O)c1cc(C)cc(O)c1C2=O | inactive | inactive | inactive | inactive | inactive | inactive | inactive | – | – | – | – | – | – | – | –
15 | COc1cc(O)cc2c1C(=O)c1c(O)cc(C)cc1C2=O | inactive | inactive | inactive | inactive | inactive | inactive | inactive | inactive | inactive | inactive | inactive | inactive | inactive | inactive | –
16 | Cc1cc(O)c2c(c1)C(=O)c1cc(O)cc(O)c1C2=O | inactive | inactive | inactive | inactive | inactive | inactive | inactive | inactive | inactive | inactive | inactive | inactive | inactive | inactive | –
17 | Cc1cc2cc(O)cc(O)c2c2oc(=O)cc(O)c12 | inactive | inactive | inactive | inactive | inactive | inactive | inactive | inactive | inactive | inactive | inactive | inactive | inactive | inactive | –
18 | COC(=O)c1cc(OC)cc(OC)c1C(=O)c1c(O)cc(C)cc1O | inactive | inactive | inactive | inactive | inactive | inactive | inactive | inactive | inactive | inactive | inactive | inactive | inactive | inactive | –
19 | COc1cc(OC)c2c(c1)[C@H]([C@H]1c3cc(C)cc(O)c3C(=O)c3c(OC)cc(O)cc31)c1cc(C)cc(O)c1C2=O | – | – | – | – | – | – | – | – | – | – | – | – | – | – | Unstable
20 | Cc1cc(O)cc(O)c1-c1cc(=O)c2c(O)cc(O)cc2o1 | inactive | inactive | inactive | inactive | inactive | inactive | inactive | inactive | inactive | inactive | inactive | inactive | inactive | inactive | –
21 | COc1cc(O)c2c(c1)[C@@H]([C@@H]1c3cc(O)cc(O)c3C(=O)c3c1cc(C)c(C(=O)OC[C@@H](O)CO)c3O)c1cc(C)cc(O)c1C2=O | – | – | – | – | – | – | – | – | – | – | – | – | – | – | Unstable
